C[C@@H]1O[C@@H](OC[C@H]2O[C@@H](Oc3c(-c4ccc(OCCO)c(OCCO)c4)oc4cc(OCCO)cc(O)c4c3=O)[C@H](O)[C@@H](O)[C@@H]2O)[C@H](O)[C@H](O)[C@H]1O
solubility (mole fraction)
Conditions	288.15 K	293.15 K	298.15 K	303.15 K	308.15 K	313.15 K	318.15 K	323.15 K
in 1,4-dioxane	0.000517	0.000596	0.000724	0.000865	0.00103	0.00121	0.00144	0.00171
in acetone	3.1e-05	3.4e-05	4.2e-05	5.5e-05	7e-05	9.1e-05	0.000124	0.000162
in acetonitrile	8e-06	1.2e-05	1.5e-05	2.1e-05	2.8e-05	3.8e-05	4.9e-05	7e-05
in ethanol	0.000228	0.000252	0.00029	0.000346	0.000407	0.000468	0.000547	0.000632
in isobutanol	4.1e-05	5.4e-05	7e-05	9e-05	0.000125	0.000176	0.000238	0.000312
in isopropanol	9.3e-05	0.000119	0.000161	0.000207	0.000268	0.000329	0.000403	0.000519
in methanol	0.000245	0.000291	0.000362	0.00045	0.000573	0.000714	0.000876	0.00107
in n-butanol	8e-05	0.000102	0.000142	0.000187	0.000248	0.000312	0.000382	0.000494
in n-pentanol	7.1e-05	9e-05	0.000107	0.000132	0.00017	0.000222	0.000289	0.000377
in n-propanol	0.000144	0.000177	0.000215	0.000258	0.000317	0.000377	0.000458	0.000562
in sec-butanol	8.6e-05	0.000108	0.00015	0.000194	0.000254	0.000319	0.000391	0.000505
